Measurements from patent US20050118728A1, “Two-layer antibody capture system” (priority 2003, published 2005).
“Also recorded” adds a separate entry of the source.

System: phospholipase C-γl
Test: Effect of tyrosine kinase inhibitor on ATP-dependent stimulation of immunocaptured phospholipase C-γl catalytic activity ([3H]PtdIns(4,5)P2 hydrolysis)
Type: biochemical
Conditions: 50 μM genistein, 20 minutes, 35° C.; enzyme captured from rat hippocampal formation P2 extract; in the presence of CaMKII, PKC and PKA inhibitors
Experimental: Anti-phospholipase C-γl antibodies were coated onto biotinylated anti-globulin immobilized on streptavidin at 200 ng of rabbit polyclonal antibody/100 μL per well. Each well was then incubated with 20 μg of rat hippocampal P2 extract overnight, and, subsequently, washed three times (5 minutes each) with room temperature PBS buffer. […]
Phospholipase C-γl enzyme activity was quantified essentially as described in Weeber et al. (Neurobiology of Learning and Memory 76 (2001) 151-182). […] 300 μL of the supernatant containing the reaction product ([^3H]Ins(1,4,5)P3) was removed and quantified by liquid scintillation spectroscopy. Immune-complex-dependent activity was calculated by subtracting background [^3H]Ins(1,4,5)P3 (release present in normal rabbit IgG antibody control samples) from the activity measured in wells containing anti-phospholipase C-γl antibody. Data were calculated as nanomoles Ins(1,4,5)P3 product formed per minute, or per mg protein, or per minute per mg protein present in the extract from which the enzyme was affinity purified.
We sought to determine whether the technique that we used for the affinity capture of phospholipase C-γl allowed for the detection of tyrosine kinase(s) that associate with the phospholipase C-γl. […] The wells were then rinsed with 1.25× phospholipase C assay buffer and the catalytic activity of the isozyme was determined. […]

In the case of O=c1c(-c2ccc(O)cc2)coc2cc(O)cc(O)c12 [genistein], the “ATP-dependent stimulation of phospholipase C-γl catalytic activity” value was “blocks; also recorded: completely inhibited”.
